Assay results: patent US4870160A, “Polypeptides with laminin activity” (Regents of the University of Minnesota, priority 1987, dated 1989)
Peptide text beside a SMILES is read from it.

Key:
[1] = system: PC12 rat pheochromocytoma cells; assay: Cell adhesion assay for PC12 pheochromocytoma cell line (Example 6D); type: cell-based; details: FIG. 13
Experimental: (§1) Adhesion was measured using 96 well microtiter plates adsorbed with three different amounts (0.1; 1.0; and 10.0 μg/per well) of peptides 9, 11-18, BSA and laminin. Cultures of cells which were 60-80% confluent were metabolically labeled for 24 hours with the addition of 3 mCi/ml of ^3 H-amino acid mixture. On the day of the assay, the cells were harvested by trypsinization, the trypsin was inhibited by the addition of serum, and the cells were washed free of this mixture and resuspended in DMEM buffered with HEPES at pH 7.2. The adhesion medium also contained 2 mg/ml BSA. The cells were adjusted to a concentration of 3-4×10^4 /ml and 100 μls of this cell suspension was added to the wells. The assay mixture was then incubated at 37° C for 120 minutes. At the end of the incubation, the wells were washed with warm PBS containing 10 mM Ca^++, and the adherent population was solubilized with 0.5N NaOH containing 1% sodium dodecyl sulfate. The solubilized cells were then quantitated using a liquid scintillation counter. Each determination was done in triplicate.
PC12 rat pheochromocytoma cells were provided by Dr. P. Letourneau of the Department of Anatomy, University of Minnesota, Minneapolis, Minn. Culturing techniques were as described in part A. Labelling and harvesting techniques were as described in Example 5. Cell adhesion assay was performed as described in Example 5.

[2] = system: Bovine aortic endothelial cells; assay: Aortic endothelial cell adhesion assay (Example 5); type: cell-based; details: 0.1; 1.0; and 10.0 μg/per well adsorbed, 120 minutes at 37° C, FIG. 9
Experimental: Bovine aortic endothelial cells were isolated according to the following protocol. Aortas were obtained from a local slaughterhouse, washed in cold phosphate buffered saline (PBS) (136 mM NaCl, 2.6 mM KCl, 15.2 mM Na2HP04, pH 7.2) and processed within 2 hours. Crude collagenase (CLS III, 125-145 units per mg dry weight, Cooper Biomedical) was used at 2 mg/ml in Dulbecco's modified Eagle's medium (DMEM) (GIBCO). The vessel was clamped at the distal end, filled with the collagenase-PBS solution and digestion was carried out for 10 minutes. The lumenal contents were harvested, followed by the addition of fresh collagenase for two additional 10-minute periods. The enzyme-cell suspensions were added to an equal volume of DMEM containing 10% fetal bovine serum (FBS) to inhibit the enzyme and spun in a centrifuge at 400×g for 10 minutes. The resulting cell pellet was resuspended in DMEM containing 10% FBS, 100 units/ml of penicillin G, 100 μg/ml of streptomycin and 100 μg/ml of crude fibroblast growth factor. Cells are cultured in 75 cm^2 flasks in a humidified 5% CO2 atmosphere at 37° C. Cultures were fed twice a week with the same medium and cells were used in assays when approximately 75% confluent. Cells were identified as endothelial in nature by characteristic cobblestone morphology, contact inhibition of growth upon reaching confluency, and positive immunofluorescent staining for factor VIII:RAg (Miles Laboratories) [S. Schwartz, In Vitro, 14, 966 (1978)]. Only endothelial cells, megakaryocytes and platelets are known to contain the factor VIII:RAg. This method routinely gives a high yield of endothelial cells with little contamination (less than 5%) by smooth muscle cells, pericytes or fibroblasts as judged by phase contrast microscopy as well as by immunostaining.
as §1, with “At the end of the incubation, the wells were washed with warm PBS containing 10 mM Ca^++, and the adherent population was solubilized with 0.5N NaOH containing 1% sodium dodecyl sulfate.” left out, “Each determination was done in triplicate.” left out

SMILES | cell adhesion [1] | endothelial cell adhesion [2]
CC[C@H](C)[C@H](NC(=O)[C@H](CCCCN)NC(=O)[C@H](CC(C)C)NC(=O)[C@H](C)NC(=O)[C@H](CCCCN)NC(=O)[C@H](C)NC(=O)[C@H](CCCCN)NC(=O)[C@H](CCC(=O)O)NC(=O)[C@H](CC(C)C)NC(=O)[C@H](Cc1ccccc1)NC(=O)[C@H](CCCCN)NC(=O)[C@H](Cc1c[nH]cn1)NC(=O)[C@@H](NC(=O)[C@H](CCCNC(=N)N)NC(=O)[C@H](CC(N)=O)NC(=O)[C@@H](NC(=O)[C@H](CC(C)C)NC(=O)[C@@H](N)CCC(=O)O)[C@@H](C)O)[C@@H](C)O)C(=O)O [Peptide F13, ELTNRTHKFLEKAKALKI] (H-ELTNRTHKFLEKAKALKI-OH) | potent promoters of cell adhesion | potent promoters of endothelial cell adhesion
CSCC[C@H](NC(=O)CNC(=O)[C@H](CCCCN)NC(=O)[C@H](CCC(=O)O)NC(=O)[C@H](Cc1ccccc1)NC(=O)[C@H](CS)NC(=O)[C@@H](NC(=O)[C@@H]1CCCN1C(=O)[C@H](CCCNC(=N)N)NC(=O)[C@@H]1CCCN1C(=O)[C@H](CC(C)C)NC(=O)[C@@H](NC(=O)[C@@H](NC(=O)[C@H](Cc1ccc(O)cc1)NC(=O)[C@@H](N)CCCNC(=N)N)C(C)C)C(C)C)C(C)C)C(=O)N[C@@H](CC(N)=O)C(=O)N[C@@H](Cc1ccc(O)cc1)C(=O)N[C@H](C(=O)N[C@H](C(=O)N[C@@H](CCCNC(=N)N)C(=O)O)C(C)C)[C@@H](C)O [Peptide F9] (H-RYVVLPRPVCFEKGMNYTVR-OH) | potent promoters of cell adhesion | potent promoters of endothelial cell adhesion
